Measurements taken from ChEMBL document CHEMBL1201862, “PubChem BioAssay data set” (2004).
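Assay format: 96-well plates, 48-hour exposure. GI50 = concentration required for 50% inhibition of growth.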 Activity calls are given as the source filed them. No stated cut-off is given here; in the data, active = GI50 up to about 1.1 µM and inactive = higher.

Tests used:
Assay in all cases: inhibition of tumour cell growth, NCI panel, 48 h
UO-31 = system: UO-31
DU-145 = system: DU-145
Hs-578T = system: Hs-578T
UACC-257 = system: UACC-257
SN12C = system: SN12C
SNB-75 = system: SNB-75
OVCAR-4 = system: OVCAR-4
LOX IMVI = system: LOX IMVI
A549 = system: A549
SF-268 = system: SF-268
SF-539 = system: SF-539
IGROV-1 = system: IGROV-1
NCI-H460 = system: NCI-H460
SR = system: SR
COLO 205 = system: COLO 205
CAKI-1 = system: CAKI-1
HCT-116 = system: HCT-116
NCI/ADR-RES = system: NCI/ADR-RES
Malme-3M = system: Malme-3M
SK-MEL-5 = system: SK-MEL-5
HL-60 = system: HL-60
K562 = system: K562
SF-295 = system: SF-295
HCC 2998 = system: HCC 2998
MDA-MB-231 = system: MDA-MB-231
OVCAR-5 = system: OVCAR-5
CCRF-CEM = system: CCRF-CEM
HT-29 = system: HT-29
786-0 = system: 786-0
UACC-62 = system: UACC-62
SW-620 = system: SW-620
A498 = system: A498
BT-549 = system: BT-549
MDA-N = system: MDA-N
NCI-H226 = system: NCI-H226
HOP-62 = system: HOP-62
SK-MEL-28 = system: SK-MEL-28
MOLT-4 = system: MOLT-4
MCF7 = system: MCF7
ACHN = system: ACHN
SK-OV-3 = system: SK-OV-3
KM12 = system: KM12
U-251 = system: U-251
EKVX = system: EKVX
TK-10 = system: TK-10
OVCAR-3 = system: OVCAR-3
M14 = system: M14
NCI-H23 = system: NCI-H23
HOP-92 = system: HOP-92
RPMI-8226 = system: RPMI-8226
SNB-19 = system: SNB-19
PC-3 = system: PC-3
T47D = system: T47D
RXF 393 = system: RXF 393
MDA-MB-435 = system: MDA-MB-435
NCI-H522 = system: NCI-H522
HCT-15 = system: HCT-15
OVCAR-8 = system: OVCAR-8
SK-MEL-2 = system: SK-MEL-2
LXFL 529 = system: LXFL 529
SNB-78 = system: SNB-78
DLD-1 = system: DLD-1
DMS-114 = system: DMS-114
M19-MEL = system: M19-MEL

`CC(CCC(=O)O)C(=O)O` (stereo unspecified) was tested, and the GI50 (UO-31) was > 100 µM (inactive), the GI50 (DU-145) was > 100 µM (inactive) and the GI50 (Hs-578T) was > 100 µM (inactive). The GI50 (UACC-257) was > 100 µM (inactive), the GI50 (SN12C) was > 100 µM (inactive) and the GI50 (SNB-75) was > 100 µM (inactive). The GI50 (OVCAR-4) was > 100 µM (inactive), the GI50 (LOX IMVI) was > 100 µM (inactive) and the GI50 (A549) was > 100 µM (inactive). For the same compound, the GI50 (SF-268) was > 100 µM (inactive), the GI50 (SF-539) was > 100 µM (inactive) and the GI50 (IGROV-1) was > 100 µM (inactive). For the same compound, the GI50 (NCI-H460) was > 100 µM (inactive), the GI50 (SR) was > 100 µM (inactive) and the GI50 (COLO 205) was > 100 µM (inactive). The GI50 (CAKI-1) was > 100 µM (inactive), the GI50 (HCT-116) was > 100 µM (inactive) and the GI50 (NCI/ADR-RES) was > 100 µM (inactive). The GI50 (Malme-3M) was > 100 µM (inactive), the GI50 (SK-MEL-5) was > 100 µM (inactive) and the GI50 (HL-60) was > 100 µM (inactive). The GI50 (K562) was > 100 µM (inactive), the GI50 (SF-295) was > 100 µM (inactive) and the GI50 (HCC 2998) was > 100 µM (inactive). For the same compound, the GI50 (MDA-MB-231) was > 100 µM (inactive), the GI50 (OVCAR-5) was > 100 µM (inactive) and the GI50 (CCRF-CEM) was > 100 µM (inactive). For the same compound, the GI50 (HT-29) was > 100 µM (inactive), the GI50 (786-0) was > 100 µM (inactive) and the GI50 (UACC-62) was > 100 µM (inactive). The GI50 (SW-620) was > 100 µM (inactive), the GI50 (A498) was > 100 µM (inactive) and the GI50 (BT-549) was > 100 µM (inactive). The GI50 (MDA-N) was > 100 µM (inactive), the GI50 (NCI-H226) was > 100 µM (inactive) and the GI50 (HOP-62) was > 100 µM (inactive). The GI50 (SK-MEL-28) was > 100 µM (inactive), the GI50 (MOLT-4) was > 100 µM (inactive) and the GI50 (MCF7) was > 100 µM (inactive). The GI50 (ACHN) was > 100 µM (inactive), the GI50 (SK-OV-3) was > 100 µM (inactive) and the GI50 (KM12) was > 100 µM (inactive). The GI50 (U-251) was > 100 µM (inactive), the GI50 (EKVX) was > 100 µM (inactive) and the GI50 (TK-10) was > 100 µM (inactive). The GI50 (OVCAR-3) was > 100 µM (inactive), the GI50 (M14) was > 100 µM (inactive) and the GI50 (NCI-H23) was > 100 µM (inactive). The GI50 (HOP-92) was > 100 µM (inactive), the GI50 (RPMI-8226) was > 100 µM (inactive) and the GI50 (SNB-19) was > 100 µM (inactive). For the same compound, the GI50 (PC-3) was > 100 µM (inactive), the GI50 (T47D) was > 100 µM (inactive) and the GI50 (RXF 393) was > 100 µM (inactive). For the same compound, the GI50 (MDA-MB-435) was > 100 µM (inactive), the GI50 (NCI-H522) was > 100 µM (inactive) and the GI50 (HCT-15) was greater than 100 µM. The GI50 (OVCAR-8) was > 100 µM (inactive) and the GI50 (SK-MEL-2) was > 100 µM (inactive).

`Nc1n[nH]c(CCCCCCCc2nnc(N)[nH]2)n1` was tested, and the GI50 (UO-31) was > 100 µM (inactive), the GI50 (UACC-257) was > 100 µM (inactive) and the GI50 (SN12C) was > 100 µM (inactive). For the same compound, the GI50 (SNB-75) was > 100 µM (inactive), the GI50 (OVCAR-4) was > 100 µM (inactive) and the GI50 (LOX IMVI) was > 100 µM (inactive). The GI50 (SF-268) was > 100 µM (inactive), the GI50 (LXFL 529) was > 100 µM (inactive) and the GI50 (SNB-78) was > 100 µM (inactive). For the same compound, the GI50 (SF-539) was > 100 µM (inactive), the GI50 (NCI-H460) was > 100 µM (inactive) and the GI50 (DLD-1) was > 100 µM (inactive). For the same compound, the GI50 (SR) was > 100 µM (inactive), the GI50 (HCT-116) was > 100 µM (inactive) and the GI50 (Malme-3M) was > 100 µM (inactive). The GI50 (HL-60) was > 100 µM (inactive), the GI50 (K562) was > 100 µM (inactive) and the GI50 (HCC 2998) was > 100 µM (inactive). The GI50 (OVCAR-5) was > 100 µM (inactive), the GI50 (CCRF-CEM) was > 100 µM (inactive) and the GI50 (HT-29) was > 100 µM (inactive). For the same compound, the GI50 (UACC-62) was > 100 µM (inactive), the GI50 (A498) was > 100 µM (inactive) and the GI50 (HOP-62) was > 100 µM (inactive). For the same compound, the GI50 (SK-MEL-28) was > 100 µM (inactive), the GI50 (MOLT-4) was > 100 µM (inactive) and the GI50 (ACHN) was > 100 µM (inactive). For the same compound, the GI50 (SK-OV-3) was > 100 µM (inactive), the GI50 (KM12) was > 100 µM (inactive) and the GI50 (U-251) was > 100 µM (inactive). For the same compound, the GI50 (EKVX) was > 100 µM (inactive), the GI50 (TK-10) was > 100 µM (inactive) and the GI50 (OVCAR-3) was > 100 µM (inactive). The GI50 (M14) was > 100 µM (inactive), the GI50 (NCI-H23) was > 100 µM (inactive) and the GI50 (RPMI-8226) was > 100 µM (inactive). For the same compound, the GI50 (SNB-19) was > 100 µM (inactive), the GI50 (RXF 393) was > 100 µM (inactive) and the GI50 (NCI-H522) was > 100 µM (inactive). For the same compound, the GI50 (HCT-15) was greater than 100 µM, the GI50 (DMS-114) was > 100 µM (inactive) and the GI50 (SK-MEL-2) was > 100 µM (inactive). For the same compound, the GI50 (M19-MEL) was > 100 µM (inactive).

`COc1ccc(C(SCC(N)C(=O)O)(c2ccc(OC)cc2)c2ccc(OC)cc2)cc1` (stereo unspecified) was tested, and the GI50 (UO-31) was 11.9 µM (inactive), the GI50 (DU-145) was > 10 µM (inactive) and the GI50 (Hs-578T) was 12.2 µM (inactive). The GI50 (UACC-257) was 11.9 µM (inactive), the GI50 (SN12C) was 12.7 µM (inactive) and the GI50 (SNB-75) was 11.3 µM (inactive). The GI50 (OVCAR-4) was 13.8 µM (inactive), the GI50 (LOX IMVI) was 9.02 µM (inactive) and the GI50 (A549) was 17.1 µM (inactive). The GI50 (SF-268) was 13.4 µM (inactive), the GI50 (SF-539) was 12.9 µM (inactive) and the GI50 (IGROV-1) was 13.3 µM (inactive). The GI50 (NCI-H460) was 11.3 µM (inactive), the GI50 (SR) was 6.27 µM (inactive) and the GI50 (COLO 205) was 12.4 µM (inactive). The GI50 (CAKI-1) was 17.3 µM (inactive), the GI50 (HCT-116) was 6.98 µM (inactive) and the GI50 (NCI/ADR-RES) was 10.6 µM (inactive). The GI50 (Malme-3M) was 10.8 µM (inactive), the GI50 (SK-MEL-5) was > 10 µM (inactive) and the GI50 (HL-60) was 14 µM (inactive). For the same compound, the GI50 (K562) was 10 µM (inactive), the GI50 (SF-295) was 11.8 µM (inactive) and the GI50 (HCC 2998) was 12.9 µM (inactive). For the same compound, the GI50 (MDA-MB-231) was 13.2 µM (inactive), the GI50 (OVCAR-5) was 13.9 µM (inactive) and the GI50 (CCRF-CEM) was 13.7 µM (inactive). For the same compound, the GI50 (HT-29) was 10.6 µM (inactive), the GI50 (786-0) was 13.4 µM (inactive) and the GI50 (UACC-62) was 10.7 µM (inactive). The GI50 (SW-620) was > 10 µM (inactive), the GI50 (A498) was 14.7 µM (inactive) and the GI50 (BT-549) was 12.8 µM (inactive). For the same compound, the GI50 (MDA-N) was 3.5 µM (inactive), the GI50 (NCI-H226) was 13.2 µM (inactive) and the GI50 (HOP-62) was 13 µM (inactive). For the same compound, the GI50 (SK-MEL-28) was 11.8 µM (inactive), the GI50 (MOLT-4) was 12.6 µM (inactive) and the GI50 (MCF7) was 8.63 µM (inactive). For the same compound, the GI50 (ACHN) was 12 µM (inactive), the GI50 (SK-OV-3) was 21.2 µM (inactive) and the GI50 (KM12) was 6.32 µM (inactive). For the same compound, the GI50 (U-251) was 14.8 µM (inactive), the GI50 (EKVX) was 13.7 µM (inactive) and the GI50 (TK-10) was 14.9 µM (inactive). For the same compound, the GI50 (OVCAR-3) was 12.2 µM (inactive), the GI50 (M14) was 10.2 µM (inactive) and the GI50 (NCI-H23) was 12.4 µM (inactive). The GI50 (HOP-92) was 14.7 µM (inactive), the GI50 (RPMI-8226) was 15.9 µM (inactive) and the GI50 (SNB-19) was 14.1 µM (inactive). The GI50 (PC-3) was 11.1 µM (inactive), the GI50 (T47D) was 12.2 µM (inactive) and the GI50 (RXF 393) was 8.47 µM (inactive). The GI50 (MDA-MB-435) was 2.97 µM (inactive), the GI50 (NCI-H522) was 14.1 µM (inactive) and the GI50 (HCT-15) was 11.6 µM. The GI50 (OVCAR-8) was 12.4 µM (inactive) and the GI50 (SK-MEL-2) was 12 µM (inactive).
